# Measured values as given in US20260115181A1, “TRANSCRIPTION FACTOR PFAP2-O5 INHIBITOR FOR PLASMODIUM FALCIPARUM, PHARMACEUTICAL COMPOSITION, AND DRUG FOR TREATING MALARIA RESISTANT TO ARTEMISININ AND ANALOG THEREOF” (priority 2023, published 2026).
# Legend:
# [1] = tested on: human renal epithelial cell line 293T; assay: Cytotoxicity, CCK8 assay, 293T cells; type: cell-based; settings: 72 hours
# Method: (§1) Mammalian 293T and HepG2 cells were cultured and passaged, trypsinized, and resuspended in DMEM. The cells were counted using a hemocytometer and diluted to 10^5 cells/mL. The cell suspension was evenly added to a 96-well plate, with 100 μL per well. After the cells were subjected to attachment culture in a 37° C. incubator (5% CO2) for 24 hours, the inhibitors of the corresponding concentrations were added. Gradient dilution (11 concentration gradients) was performed at a 1/2 ratio according to the doubling gradient dilution. Complete culture medium was used as a negative control, and DMEM was used as a background control. After the culture in a 37° C. incubator (5% CO2) for 72 hours, 10 μL of CCK8 reagent was added to each well. The plate was incubated in a 37° C. incubator (5% CO2) for 1 hour. The absorbance at a 450 nm wavelength was read by a microplate reader, and a survival rate was calculated based on the absorbance.
# (§2) [formula] • where Abtreated, Abbackground, and Abcontrol represent the absorbance values of the small molecule drug group, the DMEM control group, and the untreated control group, respectively. The inhibition rate of the drug was calculated based on the survival rate at different concentrations, and the growth inhibition curve was summarized as inhibition rate-drug concentration. The IC50 was calculated using SPSS 18.0 software.
# [2] = Liver microsomal metabolism assay, mouse; type: in vitro ADME
# Method: (§3) In the microsomal metabolism assay, the inhibitor was incubated with liver microsomes from different species; the reaction was terminated at different time points; the remaining amount of the inhibitor in the samples at each time point was determined using LC-MS/MS. The percentage of parent drug remaining was calculated, and the hepatic intrinsic clearance CLint(liver) was finally obtained. Testosterone was used as a control in this study to verify the reliability of the experimental system. The detailed procedures were as follows: • The incubation system consisted of 0.1 M Tris-HCl buffer (pH 7.4), 1 mM MgCl2, 1 mM NADPH (Nicotinamide Adenine Dinucleotide Phosphate), and 0.5 mg/ml microsomes, and the final reaction volume was 200 μL. […] inhibitor and testosterone were pre-incubated with liver microsomes from different species in a 37° C. water bath for 5 minutes. 100 μL of NADPH was added to initiate the reaction. 400 μL of stop solution was added to terminate the reaction at time points of 0 minutes, 5 minutes, 15 minutes, 30 minutes, 45 minutes, and 60 minutes. 40 μL of internal standard was added, and the mixture was vortexed for 5 minutes and centrifuged at 20,000 g and 4° C. for 5 minutes. 100 μL of the supernatant was taken and diluted with 100 μL of water for injection and analysis. The retention time of the compound and the internal standard, chromatogram acquisition, and chromatogram integration were processed by Analyst 1.6.3 software. The compound was subjected to linear regression with a weighting coefficient of 1/X^2 to calculate the concentration at each time point. The natural logarithm of the percentage remaining at each time point was linearly regressed against the incubation time to calculate the in vitro elimination rate constant k. The half-life (T1/2) and hepatic intrinsic clearance CLint(liver) of the test article were calculated according to the following formula.
# (§4) hepatic microsomal clearance CLint(mic)=0.693/half-life/mg microsomal protein per mL; hepatic intrinsic clearance CLint(liver)=hepatic microsomal clearance×mg microsomal protein/gram of liver×liver weight-to-body weight ratio. The liver weight-to-body weight ratios of mice, rats, and humans were 88, 40, and 20 g/kg, respectively; the average value of mg microsomal protein/gram of liver in different species was 45.
# [3] = Liver microsomal metabolism assay, rat; type: in vitro ADME
# Method: as §3, §4
# [4] = tested on: human liver cancer cell line HepG2; assay: Cytotoxicity, CCK8 assay, HepG2 cells; type: cell-based; settings: HepG2, 72 hours
# Method: as §1, §2
# PfAP2-O5 = assay: Transcriptome sequencing (RNA-seq) analysis of effects on PfAP2-O5 target (invasion) gene expression; type: cell-based, Plasmodium falciparum; settings: wild-type strain, 1 μM
# Method: Wild-type and pfap2-o5 conditional knockdown Plasmodium falciparum strains were treated with the hexahydroquinoline derivative represented by formula (I), respectively. After strict synchronization of the Plasmodium falciparum strains, 1 μM hexahydroquinoline derivative was added one life cycle in advance. After one life cycle, the ring (10-15 hours), trophozoite (28-32 hours), and schizont (40-44 hours) stage cultures of the wild-type and pfap2-o5 conditional knockdown Plasmodium falciparum strains treated with the hexahydroquinoline derivative were collected. Total RNA was purified using the Direct-zol RNA kit, strand-specific RNA sequencing libraries were then prepared using KAPA mRNA beads, and the RNA was fragmented. The libraries were sequenced on the Illumina HiSeq X Ten system, and the differential gene expression between the two Plasmodium falciparum strains after inhibitor treatment was analyzed.
# Plasmodium falciparum = assay: In vitro growth inhibition of Plasmodium falciparum (3-day SYBR Green I cell growth assay); type: cell-based; settings: wild-type Plasmodium falciparum, 72 hours, read-out: IC50 of the quantitative growth inhibitory effect on in vitro culture of Plasmodium falciparum
# Method: 100 μL of complete culture medium was added to a 96-well plate. 200 μL of a compound stock solution with a concentration of 200 μM was added to the first well. Gradient dilution (11 concentration gradients) was performed at a 1/2 ratio according to the doubling gradient dilution. Dihydroartemisinin (DHA) was used as a positive control, complete culture medium was used as a negative control, and red blood cells without Plasmodium falciparum or compounds were used as a background control.
# 100 μL of wild-type Plasmodium falciparum culture (1% parasitemia, 4% hematocrit) was accurately added to each well, so that finally, the parasitemia in each well was 0.5%, and the hematocrit was 2%. The final concentration gradients of the compound were 100 μM, 50 μM, 25 μM, 12.5 μM, 6.25 μM, 3.125 μM, 1.5625 μM, 0.78125 μM, 0.390625 µM, 0.195313 μM, and 0.097656 μM. […] After the incubation was completed, a fluorescence intensity was recorded on a microplate reader with an excitation wavelength of 485 nm and an emission wavelength of 535 nm. The inhibition rate of the small molecule inhibitor on the growth of Plasmodium falciparum was calculated based on the fluorescence intensity.
# [formula] • where Fltreated, Flbackground, and Flcontrol represent the fluorescence intensity values of the candidate small molecule drug group, the red blood cell control group, and the untreated control group, respectively. […]
# [5] = Liver microsomal metabolism assay, human; type: in vitro ADME
# Method: as §3, §4
compound,measurement,setting,value
CC1=C(C(=O)Nc2cccc(C(F)(F)F)c2)C(c2cccc([N+](=O)[O-])c2)C2=C(CC(C)(C)CC2=O)N1 (centres unmarked) [hexahydroquinoline derivative],cytotoxicity to mammalian cells,[1],low cytotoxicity
same,CLint scaled,"[2]; liver microsomes, pH 7.4, mouse, hepatic intrinsic clearance CLint(liver), scaled with 45 mg protein/g liver, 88 g/kg",176 mL/min/kg
same,clearance classification,[2]; mouse liver microsomes,moderate-clearance compound
same,k,"[2]; mouse liver microsomes 0.5 mg/ml, 1 mM NADPH, 1 M inhibitor, 37° C.",0.0222 min⁻¹
same,half-life,"[2]; pH 7.4, mouse liver microsomes 0.5 mg/ml, 1 mM NADPH, 37° C.",31.2 min
same,CLint scaled,"[3]; liver microsomes, pH 7.4, rat, hepatic intrinsic clearance CLint(liver), scaled with 45 mg protein/g liver, 40 g/kg",178 mL/min/kg
same,half-life,"[3]; pH 7.4, rat liver microsomes 0.5 mg/ml, 1 mM NADPH, 37° C.",14.1 min
same,clearance classification,[3]; rat liver microsomes,high-clearance compound
same,k,"[3]; rat liver microsomes 0.5 mg/ml, 1 mM NADPH, 1 M inhibitor, 37° C.",0.0493 min⁻¹
same,cytotoxicity to mammalian cells,[4],low cytotoxicity
same,expression of PfAP2-O5 target genes after treatment,PfAP2-O5,downregulated
same,decrease of expression levels of merozoite surface structural protein family (invasion) genes (mRNA level),PfAP2-O5; added one life cycle in advance,more than 1.5 fold
same,IC50,Plasmodium falciparum,2.16 µM
same,clearance classification,[5]; human liver microsomes,moderate-clearance compound
same,k,"[5]; human liver microsomes 0.5 mg/ml, 1 mM NADPH, 1 M inhibitor, 37° C.",0.0124 min⁻¹
same,CLint scaled,"[5]; liver microsomes, pH 7.4, human, hepatic intrinsic clearance CLint(liver), scaled with 45 mg protein/g liver, 20 g/kg",22.3 mL/min/kg
same,half-life,"[5]; pH 7.4, human liver microsomes 0.5 mg/ml, 1 mM NADPH, 37° C.",55.9 min
